According to ChEMBL document CHEMBL4831512 (J Med Chem, 2021):
Converted amounts (≈) assume the structure as drawn. One block for each compound: values may come before it. The source made the active and inactive calls. The rule behind the calls is not given here.

Legend:
in vivo [1] = details: Sprague-Dawley, rat, po, 10 mg/kg
in vivo [2] = details: Sprague-Dawley, rat, iv, 1 mg/kg
physchem [3] = details: buffer, pH 6.8
Description: Equilibrium solubility of compound in buffer at pH 6.8 incubated over night under shaking condition by LC-MS/MS analysis

in vivo [4] = details: Sprague-Dawley, rat, po, 10 mg/kg; remark: listed apart in the source
physchem [5] = details: simulated gi fluid, pH 1
Description: Solubility of compound in stimulated gastric fluid at pH 1 using crystalline form of sample by shake flask method

physchem [6] = details: buffer, pH 6.8; remark: listed apart in the source
Description: Solubility of compound at pH 6.8 by shake flask method

physchem [7] = details: simulated gi fluid
Description: Solubility of compound in fed state simulated intestinal fluid by shake flask method

in vitro = details: PAMPA
Description: Permeability of the compound at 500 uM incubated for 16 hrs by PAMPA

in vivo [8] = details: Sprague-Dawley, rat, po, 10 mg/kg; remark: listed apart in the source
Blood = assay: tissue or blood; format: functional, tissue-based; details: Homo sapiens
in vivo [9] = details: Sprague-Dawley, rat, iv, 1 mg/kg; remark: listed apart in the source
in vivo [10] = details: Sprague-Dawley, rat, po, 100 mg/kg
in vivo [11] = details: Sprague-Dawley, rat, po, 300 mg/kg
Rattus norvegicus [12] = species: Rattus norvegicus; details: dose 10-20 mg/kg, time 2.0 hrs
in vivo [13] = details: Sprague-Dawley, rat, po, 300 mg/kg; remark: listed apart in the source
in vivo [14] = details: Sprague-Dawley, rat, po, 100 mg/kg; remark: listed apart in the source
in vivo [15] = details: Sprague-Dawley, rat, po, 300 mg/kg; remark: listed apart in the source
[16] = biological target: 3',5'-cyclic-AMP phosphodiesterase 4D (Homo sapiens, UniProt Q08499)
3',5'-cyclic-AMP phosphodiesterase 4D, sequence (Q08499 whole entry): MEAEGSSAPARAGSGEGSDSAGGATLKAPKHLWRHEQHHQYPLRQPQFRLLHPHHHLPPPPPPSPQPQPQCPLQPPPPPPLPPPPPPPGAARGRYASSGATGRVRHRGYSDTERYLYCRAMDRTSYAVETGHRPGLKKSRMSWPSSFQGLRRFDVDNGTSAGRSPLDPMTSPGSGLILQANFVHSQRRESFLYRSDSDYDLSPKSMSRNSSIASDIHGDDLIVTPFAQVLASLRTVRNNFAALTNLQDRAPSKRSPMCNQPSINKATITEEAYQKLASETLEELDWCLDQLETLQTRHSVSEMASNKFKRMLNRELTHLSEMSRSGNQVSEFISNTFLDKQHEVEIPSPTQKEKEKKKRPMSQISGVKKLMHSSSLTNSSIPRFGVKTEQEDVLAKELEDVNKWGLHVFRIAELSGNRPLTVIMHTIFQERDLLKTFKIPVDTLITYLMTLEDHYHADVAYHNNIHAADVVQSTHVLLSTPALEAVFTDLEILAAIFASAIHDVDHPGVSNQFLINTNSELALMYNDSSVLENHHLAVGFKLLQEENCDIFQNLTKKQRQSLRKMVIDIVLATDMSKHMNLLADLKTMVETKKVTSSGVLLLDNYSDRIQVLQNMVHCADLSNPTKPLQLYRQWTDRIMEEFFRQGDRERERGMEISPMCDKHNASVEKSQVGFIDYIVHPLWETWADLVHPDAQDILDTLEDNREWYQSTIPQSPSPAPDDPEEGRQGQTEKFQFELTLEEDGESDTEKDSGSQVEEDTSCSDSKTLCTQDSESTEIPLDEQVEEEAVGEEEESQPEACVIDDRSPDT
Description: Binding affinity to PDE4d (unknown origin)

in vivo [17] = details: Sprague-Dawley, rat, po, 100 mg/kg; remark: listed apart in the source
Rattus norvegicus [18] = species: Rattus norvegicus; details: dose 20.0 mg/kg, time 2.0 hrs
[19] = biological target: T1, Phosphatidylinositol 4,5-bisphosphate 3-kinase catalytic subunit alpha isoform (Homo sapiens, UniProt P42336); format: cell-based, Fibroblast
T1 sequence (P42336 whole entry, canonical isoform): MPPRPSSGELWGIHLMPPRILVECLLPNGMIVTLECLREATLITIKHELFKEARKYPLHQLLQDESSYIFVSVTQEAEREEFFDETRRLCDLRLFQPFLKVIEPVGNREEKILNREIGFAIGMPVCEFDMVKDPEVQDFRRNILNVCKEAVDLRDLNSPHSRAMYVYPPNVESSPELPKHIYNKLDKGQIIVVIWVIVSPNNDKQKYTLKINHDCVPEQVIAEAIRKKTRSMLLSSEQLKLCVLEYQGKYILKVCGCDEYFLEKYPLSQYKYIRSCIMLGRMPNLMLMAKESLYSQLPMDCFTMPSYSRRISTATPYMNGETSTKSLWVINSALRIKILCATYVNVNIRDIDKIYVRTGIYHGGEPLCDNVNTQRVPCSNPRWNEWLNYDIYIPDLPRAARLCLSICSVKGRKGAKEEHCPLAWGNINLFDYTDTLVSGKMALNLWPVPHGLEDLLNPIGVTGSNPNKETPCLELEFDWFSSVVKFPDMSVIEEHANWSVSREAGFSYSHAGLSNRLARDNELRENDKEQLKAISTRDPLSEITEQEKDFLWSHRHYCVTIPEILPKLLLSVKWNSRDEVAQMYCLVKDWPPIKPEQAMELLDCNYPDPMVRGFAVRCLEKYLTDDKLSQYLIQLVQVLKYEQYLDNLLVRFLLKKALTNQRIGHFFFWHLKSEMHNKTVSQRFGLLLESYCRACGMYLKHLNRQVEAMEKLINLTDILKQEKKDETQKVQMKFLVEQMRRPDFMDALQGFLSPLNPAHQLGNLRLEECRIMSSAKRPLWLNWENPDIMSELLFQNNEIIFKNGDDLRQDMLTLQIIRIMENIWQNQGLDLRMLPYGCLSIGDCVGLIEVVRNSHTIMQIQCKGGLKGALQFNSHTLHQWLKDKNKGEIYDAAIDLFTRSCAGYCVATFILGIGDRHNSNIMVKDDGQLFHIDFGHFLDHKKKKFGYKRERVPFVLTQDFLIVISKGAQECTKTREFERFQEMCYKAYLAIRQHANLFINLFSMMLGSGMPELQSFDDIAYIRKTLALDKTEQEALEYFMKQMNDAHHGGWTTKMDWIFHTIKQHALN
Description: Inhibition of human PI3Kalpha expressed in rat fibroblast cells assessed as reduction in AKT phosphorylation at Ser473 residue incubated for 1 hr by AlphaScreen assay

[20] = biological target: T2, Phosphatidylinositol 4,5-bisphosphate 3-kinase catalytic subunit beta isoform (Homo sapiens, UniProt P42338); format: cell-based, Fibroblast
T2 sequence (P42338 whole entry, canonical isoform): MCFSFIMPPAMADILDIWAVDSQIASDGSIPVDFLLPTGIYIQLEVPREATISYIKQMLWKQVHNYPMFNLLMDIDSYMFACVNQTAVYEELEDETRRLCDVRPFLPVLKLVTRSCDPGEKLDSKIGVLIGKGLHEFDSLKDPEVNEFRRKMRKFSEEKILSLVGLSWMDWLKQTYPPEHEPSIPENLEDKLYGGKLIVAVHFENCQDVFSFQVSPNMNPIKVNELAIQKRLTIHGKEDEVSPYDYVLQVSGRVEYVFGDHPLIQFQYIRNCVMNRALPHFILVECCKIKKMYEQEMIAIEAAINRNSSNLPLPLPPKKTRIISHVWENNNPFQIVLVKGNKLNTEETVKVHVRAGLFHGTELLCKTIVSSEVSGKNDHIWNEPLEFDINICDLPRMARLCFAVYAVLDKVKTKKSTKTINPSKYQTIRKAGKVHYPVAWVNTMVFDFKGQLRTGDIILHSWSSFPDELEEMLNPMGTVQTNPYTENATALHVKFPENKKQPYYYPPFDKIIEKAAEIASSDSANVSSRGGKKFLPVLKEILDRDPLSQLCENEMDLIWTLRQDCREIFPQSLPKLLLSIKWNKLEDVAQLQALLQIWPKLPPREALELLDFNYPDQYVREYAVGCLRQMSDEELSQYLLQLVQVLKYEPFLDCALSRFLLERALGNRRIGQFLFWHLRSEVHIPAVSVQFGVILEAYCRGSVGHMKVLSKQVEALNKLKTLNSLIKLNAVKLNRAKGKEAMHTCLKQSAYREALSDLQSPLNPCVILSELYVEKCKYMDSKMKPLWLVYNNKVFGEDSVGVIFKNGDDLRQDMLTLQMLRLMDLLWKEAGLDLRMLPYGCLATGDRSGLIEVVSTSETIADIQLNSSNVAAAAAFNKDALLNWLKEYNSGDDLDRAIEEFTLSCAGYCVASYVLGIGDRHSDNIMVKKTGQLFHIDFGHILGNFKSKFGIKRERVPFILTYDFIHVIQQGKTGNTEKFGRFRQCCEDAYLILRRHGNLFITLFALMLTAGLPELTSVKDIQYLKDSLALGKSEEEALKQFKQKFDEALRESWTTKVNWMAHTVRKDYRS
Description: Inhibition of human PI3Kbeta expressed in rat fibroblast cells assessed as reduction in AKT phosphorylation at Ser473 residue incubated for 1 hr by AlphaScreen assay

[21] = biological target: T3, Phosphatidylinositol 4,5-bisphosphate 3-kinase catalytic subunit delta isoform (Homo sapiens, UniProt O00329); format: cell-based, Fibroblast
T3 sequence (O00329 whole entry): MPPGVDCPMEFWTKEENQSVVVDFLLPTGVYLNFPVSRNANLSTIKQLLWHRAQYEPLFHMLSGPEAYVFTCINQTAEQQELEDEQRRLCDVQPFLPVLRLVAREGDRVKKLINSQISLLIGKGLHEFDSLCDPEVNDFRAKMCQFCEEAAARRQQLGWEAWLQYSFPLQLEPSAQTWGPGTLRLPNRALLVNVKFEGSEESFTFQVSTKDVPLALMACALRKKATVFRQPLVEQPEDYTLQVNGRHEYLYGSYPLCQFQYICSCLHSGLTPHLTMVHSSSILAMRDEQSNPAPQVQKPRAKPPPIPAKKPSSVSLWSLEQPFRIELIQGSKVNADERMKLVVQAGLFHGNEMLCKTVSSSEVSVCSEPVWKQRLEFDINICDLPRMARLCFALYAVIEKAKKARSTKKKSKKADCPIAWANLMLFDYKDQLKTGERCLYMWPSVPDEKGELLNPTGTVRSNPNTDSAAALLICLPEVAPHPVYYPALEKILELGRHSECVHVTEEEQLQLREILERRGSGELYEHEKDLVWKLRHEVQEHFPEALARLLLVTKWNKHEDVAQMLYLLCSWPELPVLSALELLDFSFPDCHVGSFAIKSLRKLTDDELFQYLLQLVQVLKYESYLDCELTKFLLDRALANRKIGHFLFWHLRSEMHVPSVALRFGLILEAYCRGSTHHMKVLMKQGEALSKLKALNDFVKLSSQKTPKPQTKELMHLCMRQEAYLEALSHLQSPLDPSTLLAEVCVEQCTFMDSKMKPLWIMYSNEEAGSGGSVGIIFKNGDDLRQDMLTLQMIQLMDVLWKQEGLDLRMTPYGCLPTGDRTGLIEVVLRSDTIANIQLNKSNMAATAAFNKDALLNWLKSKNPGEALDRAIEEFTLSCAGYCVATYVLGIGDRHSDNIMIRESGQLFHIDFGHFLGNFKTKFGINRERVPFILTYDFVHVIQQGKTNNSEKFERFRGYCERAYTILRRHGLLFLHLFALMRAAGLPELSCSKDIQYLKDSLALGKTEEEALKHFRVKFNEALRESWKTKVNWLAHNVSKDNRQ
Description: Inhibition of human PI3Kdelta expressed in rat fibroblast cells assessed as reduction in AKT phosphorylation at Ser473 residue incubated for 1 hr by AlphaScreen assay

[22] = biological target: T2, Phosphatidylinositol 4,5-bisphosphate 3-kinase catalytic subunit beta isoform
[23] = biological target: T3, Phosphatidylinositol 4,5-bisphosphate 3-kinase catalytic subunit delta isoform
[24] = biological target: T1, Phosphatidylinositol 4,5-bisphosphate 3-kinase catalytic subunit alpha isoform

Structure (SMILES): Cc1ccc(S(=O)(=O)NCC(C)(C)O)cc1-c1cnc(N)c(-c2cn(C)nc2C)n1
Fa at 16 h, 500 µM (in vitro): 24%

Structure (SMILES): Cc1ccc(S(=O)(=O)NCC(C)(C)O)cc1-c1cnc(N)c(-c2nn(C)nc2C)n1
Fa at 16 h, 500 µM (in vitro): 81%

Structure (SMILES): Cc1nnc(-c2cc(-c3cc(S(=O)(=O)NCC(C)(C)O)ccc3C)cnc2N)o1
Fa at 16 h, 500 µM (in vitro): 27%

Structure (SMILES): Cc1ccc(S(=O)(=O)NCC(C)(C)O)cc1-c1cnc(N)c(-n2cncn2)n1
Fa at 16 h, 500 µM (in vitro): 27%

Structure (SMILES): Cc1ncc(-c2nc(-c3cc(S(=O)(=O)NCCO)ccc3C)cnc2N)s1
Fa at 16 h, 500 µM (in vitro): 35%

Structure (SMILES): Cc1ccc(S(=O)(=O)NCC(C)(C)O)cc1-c1cnc(N)c(-c2cnn(C)c2C)c1
Fa at 16 h, 500 µM (in vitro): < 35%

Structure (SMILES): Cc1ccc(S(=O)(=O)N[C@H]2CC[C@H](O)CC2)cc1-c1cnc(N)c(C(=O)C2CC2)n1
half-life (in vivo [9]): 4.6 h

Structure (SMILES): Cc1ncc(-c2nc(-c3cc(S(=O)(=O)NC4CCC(F)(F)CC4)ccc3C)cnc2N)s1
Fa at 16 h, 500 µM (in vitro): 96%

Structure (SMILES): Cc1ccc(S(=O)(=O)NCC(C)(C)O)cc1-c1cnc(N)c(-n2cncn2)c1
Fa at 16 h, 500 µM (in vitro): < 27%

Structure (SMILES): Cc1ncc(-c2cc(-c3cc(S(=O)(=O)NCC(C)(C)O)ccc3C)cnc2N)o1
Cmax (in vivo [1]): 1.53 µM | clearance (in vivo [2]): 30 mL/min/kg | Cmax (in vivo [10]): 12.2 µM | bioavailability (in vivo [11]): 122% | inhibition (Rattus norvegicus [12]): Dose-Dependent Effect | solubility thermodynamic (physchem [3]): 270 µg/mL (≈ 648 µM) | Cmax (in vivo [13]): 25.2 µM | bioavailability (in vivo [4]): 72% | IC50 (Blood): 0.856 µM | solubility thermodynamic (physchem [5]): 532 µg/mL (≈ 1280 µM) | solubility thermodynamic (physchem [6]): 4 µg/mL (≈ 9.6 µM) | solubility thermodynamic (physchem [7]): 200 µg/mL (≈ 480 µM) | AUC(0-t) at 24 h (in vivo [14]): 128 µM·h | AUC(0-t) at 24 h (in vivo [15]): 397 µM·h | Fa at 16 h, 500 µM (in vitro): < 27% | IC50 [16]: 1.1 µM | bioavailability (in vivo [17]): 94% | inhibition (Rattus norvegicus [18]): Active | AUC(0-t) at 24 h (in vivo [8]): 9.75 µM·h

Structure (SMILES): Cc1cc(-c2nc(-c3cc(S(=O)(=O)NCC(C)(C)O)ccc3C)cnc2N)on1
Fa at 16 h, 500 µM (in vitro): 43%

Structure (SMILES): CCn1nnc(CCNC(=O)Nc2nc(C)c(-c3ccc(S(C)(=O)=O)c(F)c3)s2)n1
IC50 [19]: > 10 µM | IC50 [20]: 2.36 µM | IC50 [21]: 4.03 µM | IC50 [22]: 0.36 µM | IC50 (Blood): 7.05 µM | IC50 [23]: 0.96 µM | IC50 [24]: 3.03 µM

Structure (SMILES): Cc1ncc(-c2nc(-c3cc(S(=O)(=O)NCC(C)(C)O)ccc3C)cnc2N)s1
Fa at 16 h, 500 µM (in vitro): 43%

Structure (SMILES): Cc1ncc(-c2nc(-c3cc(S(=O)(=O)N[C@H]4CC[C@H](O)CC4)ccc3C)cnc2N)s1
Fa at 16 h, 500 µM (in vitro): < 21%

Further lines, results first:

Cmax (in vivo [1]): 3.29 µM | clearance (in vivo [2]): 15 mL/min/kg | solubility thermodynamic (physchem [3]): 160 µg/mL (≈ 383 µM) | bioavailability (in vivo [4]): 66% | solubility thermodynamic (physchem [5]): 1020 µg/mL (≈ 2460 µM) | solubility thermodynamic (physchem [6]): 16 µg/mL (≈ 38.3 µM) | solubility thermodynamic (physchem [7]): 92 µg/mL (≈ 220 µM) | Fa at 16 h, 500 µM (in vitro): 81% | AUC(0-t) at 24 h (in vivo [8]): 17.1 µM·h
Structure (SMILES): Cc1noc(-c2cc(-c3cc(S(=O)(=O)NCC(C)(C)O)ccc3C)cnc2N)n1

Fa at 16 h, 500 µM (in vitro): 96%
Structure (SMILES): Cc1ccn(-c2nc(-c3cc(S(=O)(=O)NCC(C)(C)O)ccc3C)cnc2N)n1

solubility thermodynamic (physchem [3]): 290 µg/mL (≈ 696 µM) | IC50 (Blood): 0.931 µM | Fa at 16 h, 500 µM (in vitro): 52%
Structure (SMILES): Cc1ccc(S(=O)(=O)NCC(C)(C)O)cc1-c1cnc(N)c(-c2cnn(C)n2)c1

Fa at 16 h, 500 µM (in vitro): 35%
Structure (SMILES): Cc1ncc(-c2nc(-c3cc(S(=O)(=O)NCCC(C)(C)O)ccc3C)cnc2N)s1

Fa at 16 h, 500 µM (in vitro): 27%
Structure (SMILES): Cc1ncc(-c2nc(-c3cc(S(=O)(=O)NCCCO)ccc3C)cnc2N)s1

solubility thermodynamic (physchem [3]): 30 µg/mL (≈ 72.2 µM) | Fa at 16 h, 500 µM (in vitro): 68%
Structure (SMILES): Cc1cnn(-c2cc(-c3cc(S(=O)(=O)NCC(C)(C)O)ccc3C)cnc2N)c1

solubility thermodynamic (physchem [3]): 52 µg/mL (≈ 120 µM) | IC50 (Blood): 1.81 µM | Fa at 16 h, 500 µM (in vitro): 43%
Structure (SMILES): Cc1ncc(-c2cc(-c3cc(S(=O)(=O)NCC(C)(C)O)ccc3C)cnc2N)s1

Fa at 16 h, 500 µM (in vitro): 60%
Structure (SMILES): Cc1ccc(S(=O)(=O)NCC(C)(C)O)cc1-c1cnc(N)c(-c2cnn(C)n2)n1
